This is an account of results in ChEMBL document CHEMBL5338711, “Designing and development of phthalimides as potent anti-tubulin hybrid molecules against malaria” (Eur J Med Chem, 2022).

The subject of data set [1] is Plasmodium falciparum. Kind of data set: Antimalarial activity against […] infected in human RBC assessed as inhibition of plasmodial growth at 1 uM by SYBR green dye based spectrofluorometric analysis relative to control. Particulars: 3D7, Erythrocyte. It is filed as functional.
Data set [2] concerns Plasmodium falciparum. The data set can be described thus: Antimalarial activity against […] infected in human RBC assessed as inhibition of plasmodial growth at 10 uM by SYBR green dye based spectrofluorometric analysis relative to control. It is filed as functional. Particulars: 3D7, Erythrocyte.
The nature of data set [3]: Cytotoxicity against human U-937 cells assessed as reduction in cell viability incubated for 24 hrs by MTT assay. The format is toxicity, cell-based.
Data set [4] has as its system Plasmodium falciparum. The data set can be described thus: Antiplasmodial activity against […] incubated for 90 hrs by SYBR green I dye based analysis. Particulars: 3D7, 90 h. It is filed as functional, organism-based.
The test system of data set [5] is Plasmodium falciparum. Kind of data set: Antiplasmodial activity against synchronized ring stage Plasmodium falciparum 3D7 infected in human RBC assessed as reduction in transformation into pyknotic trophozoites by measuring delay in ring maturation at IC50 concentration measured after 60 hrs by giemsa staining based light microscopic analysis. The format is functional, organism-based.

In a further data set the test system is Erythrocyte. The data set can be described thus: Hemolytic activity in human RBC assessed as hemolysis upto 5 uM incubated for 2 hrs. It is filed as toxicity, cell-based.
The subject of data set [6] is Plasmodium berghei. The data set can be described thus: Antimalarial activity against Plasmodium berghei ANKA in BALB/c mouse injected with parasite infected erythrocytes assessed as […] mean survival time at 30 mg/kg, ip administered daily for 7 days and measured after 15 days. The format is functional. Particulars: time 15 day.
Data set [7] in a line: Therapeutic index, ratio of CC50 for human HepG2 cells to IC50 for chloroquine-sensitive synchronized late stage trophozoite Plasmodium falciparum 3D7 infected in human RBC. It is filed as toxicity. Particulars: read-out: TI.
The nature of data set [8]: Cytotoxicity against […] cell upto 500 uM. The format is toxicity, cell-based. Particulars: human.
For data set [9], the system named is Plasmodium falciparum. The data set can be described thus: Induction of mitochondrial membrane depolarization in trophozoite stage Plasmodium falciparum 3D7 infected in human RBC assessed as decrease in red to green fluorescence ratio at IC50 concentration incubated for 3 hrs by JC-1 dye based fluorescence microscopic analysis. The format is functional, organism-based.

For data set [10], the system named is Plasmodium falciparum. The data set can be described thus: Synergistic antimalarial activity against synchronized ring stage Plasmodium falciparum 3D7 infected in human RBC assessed as mean fractional inhibitory concentration at 1:1 ratio of ART to compound incubated for 72 hrs by giemsa staining based flow cytometric analysis. The format is functional. A general note: In flow cytometry, cells or beads pass a laser one at a time.

Data set [11] relates to Plasmodium falciparum. The data set can be described thus: Induction of mitochondrial membrane depolarization in trophozoite stage Plasmodium falciparum 3D7 infected in human RBC assessed as red to green fluorescence ratio at IC50 concentration incubated for 3 hrs by JC-1 dye based spectrofluorometric analysis (reference value: 6.96+/-0.94). The format is functional.
Data set [12] deals with Plasmodium falciparum. The data set can be described thus: Antimalarial activity against chloroquine-resistant synchronized late stage trophozoite Plasmodium falciparum RKL-9 infected in human RBC assessed as inhibition of plasmodial growth by giemsa staining based analysis. The format is functional, organism-based. Particulars: RKL-9, Erythrocyte.
Data set [13] is described as follows: Cytotoxicity against human HepG2 cells. It is filed as toxicity, cell-based.
Data set [14] relates to Plasmodium berghei. Kind of data set: Antimalarial activity against Plasmodium berghei ANKA in BALB/c mouse injected with parasite infected erythrocytes assessed as decrease in parasite load at 30 mg/kg, ip administered daily for 7 days relative to control. The format is functional. Particulars: time 7 day. Also on record: scale not given: the % may be the effect or the level left.

Data set [15] has as its system Plasmodium falciparum. Kind of data set: Antimalarial activity against chloroquine-resistant Plasmodium falciparum RKL-9 infected in human RBC assessed as reduction of plasmodial growth by SYBR green dye based spectrofluorometric analysis. The format is functional, organism-based.
Data set [16] concerns Plasmodium falciparum. Kind of data set: Induction of mitochondrial membrane depolarization in trophozoite stage Plasmodium falciparum 3D7 infected in human RBC assessed as increase in green fluorescence at IC50 concentration incubated for 3 hrs by JC-1 dye based fluorescence microscopic analysis. The format is functional, organism-based.
For data set [17], the system named is Plasmodium falciparum. The data set can be described thus: Antimalarial activity against chloroquine-sensitive synchronized late stage trophozoite Plasmodium falciparum 3D7 infected in human RBC assessed as inhibition of plasmodial growth by giemsa staining based analysis. The format is functional, organism-based. Particulars: 3D7, Erythrocyte.
Data set [18] has as its system Plasmodium berghei. The data set can be described thus: Antimalarial activity against Plasmodium berghei ANKA in BALB/c mouse injected with parasite infected erythrocytes assessed as reduction in parasitemia at 30 mg/kg, ip administered daily for 7 days and measured after 15 days. The format is functional, organism-based. Particulars: time 15.0 day.
In data set [19] the test system is Plasmodium falciparum. Kind of data set: Synergistic antimalarial activity against synchronized ring stage Plasmodium falciparum 3D7 infected in human RBC assessed as mean fractional inhibitory concentration at 1:4 ratio of ART to compound incubated for 72 hrs by giemsa staining based flow cytometric analysis. The format is functional.
Data set [20] concerns Plasmodium falciparum. The data set can be described thus: Binding affinity to recombinant N-terminal 6His tagged Plasmodium falciparum alpha-1 tubulin expressed in Escherichia coli BL21 assessed as thermo-stabilization incubated at 4 to 80 degreeC for 3 mins followed by 5 mins incubation at room temperature by thermal shift assay. Particulars: time 8.0 min.
Data set [21] is described as follows: Therapeutic index, ratio of cytotoxicity against […] cells to IC50 for chloroquine-sensitive synchronized late stage trophozoite Plasmodium falciparum 3D7 infected in human RBC. Particulars: read-out: TI. It is filed as toxicity, cell-based.
The test system of data set [22] is Plasmodium falciparum. Kind of data set: Antiplasmodial activity against synchronized ring stage Plasmodium falciparum 3D7 infected in human RBC assessed as failure of egress by measuring accumulation at late schizont stage at IC50 concentration measured after 60 hrs by giemsa staining based light microscopic analysis. The format is functional, organism-based.

Data set [23] concerns Plasmodium falciparum. The data set can be described thus: Binding affinity to recombinant N-terminal 6His tagged Plasmodium falciparum alpha-1 tubulin expressed in Escherichia coli BL21 assessed as dissociation constant at 0.78 to 75 uM by SPR analysis. Particulars: dose 0.78-75 µM. On the technique in general: In SPR one partner is held on a chip, and binding of the other changes the refractive index at the surface.

Data set [24] deals with Plasmodium falciparum. Kind of data set: Binding affinity to recombinant N-terminal 6His tagged Plasmodium falciparum beta-tubulin expressed in Escherichia coli BL21 at 0.78 to 75 uM by SPR analysis. Particulars: dose 0.78-75 µM.

Broadly, the inhibition is the relative decrease from the control value, in per cent. As a reminder, the CC50 is the concentration that lowers cell viability or growth by half. A word on the IC50: it is the midpoint of a concentration-inhibition curve.

Each structure is given as a SMILES string. Activity calls are given as the source filed them. No cut-off for these calls is given here. Bounds are passed on as bounds.

`CC(C)C[C@H](c1nc2ccccc2n1Cc1cn(-c2ccc(C(F)(F)F)cc2)nn1)N1C(=O)c2ccccc2C1=O`: the inhibition at 1 µM in the data set on Plasmodium falciparum [1] is -53%. Also, in the data set on Plasmodium falciparum [2], the inhibition at 10 µM came to 88%.

Consider `CC(C)C(c1nc2ccccc2n1Cc1cn(-c2ccc(F)cc2)nn1)N1C(=O)c2ccccc2C1=O` (stereo not drawn), for which the half-maximal cytotoxic concentration (CC50) at 24 h in data set [3] came to 780 nM. The IC50 in the data set on Plasmodium falciparum [4] is 3500 nM.

As to `CC(C)CC(c1nc2ccccc2n1Cc1cn(-c2ccccc2)nn1)N1C(=O)c2ccccc2C1=O` (stereo not drawn), the 50% cytotoxic concentration (CC50) at 24 h in data set [3] stood at 910 nM. In the data set with Plasmodium falciparum [4], the half-maximal inhibitory concentration (IC50) amounted to 900 nM.

With `CC(C)[C@H](c1nc2ccccc2n1Cc1cn(-c2c(F)cccc2F)nn1)N1C(=O)c2ccccc2C1=O`, the inhibition at 1 µM with Plasmodium falciparum [1] was -26%. Besides, in the data set with Plasmodium falciparum [2], the inhibition at 10 µM was determined as 91%.

Turning to `CC(C)[C@H](c1nc2ccccc2n1Cc1cn(-c2ccc(C(F)(F)F)cc2)nn1)N1C(=O)c2ccccc2C1=O`, in the data set on Plasmodium falciparum [1], the inhibition at 1 µM was 22%. Moreover, the outcome in the data set with Plasmodium falciparum [5], with Plasmodium falciparum [9], in the data set with Plasmodium falciparum [16] and in the data set with Plasmodium berghei [18] was Active. Also, the Activity entry with Erythrocyte is “Non-Toxic”; in [8], “Non-Toxic”; in the data set with Plasmodium falciparum [11], 5.06; in the data set on Plasmodium berghei [14], 3.9%; in the data set with Plasmodium falciparum [15], “Dose dependent effect”. Moreover, the MST in the data set with Plasmodium berghei [6] worked out at 10.47 days. Also, in data set [7], the selectivity ratio was 43. In the data set with Plasmodium falciparum [2], the inhibition at 10 µM turned out to be 75%. Moreover, in the data set on Plasmodium falciparum [10], the FIC is on record as 0.93. Moreover, the IC50 in the data set with Plasmodium falciparum [12] was 3920 nM; in data set [13], > 100000 nM; in the data set on Plasmodium falciparum [17] it was 2300 nM.

In the case of `CCC(C)[C@H](c1nc2ccccc2n1Cc1cn(-c2ccccc2F)nn1)N1C(=O)c2ccc(C)cc2C1=O` (stereo partly drawn), the inhibition at 1 µM with Plasmodium falciparum [1] was -23%. Also, the inhibition at 10 µM in the data set with Plasmodium falciparum [2] stood at 91%.

`CCC(C)[C@H](c1nc2ccccc2n1Cc1cn(-c2ccccc2F)nn1)N1C(=O)c2ccccc2C1=O` (stereo partly drawn): in the data set with Plasmodium falciparum [1], the inhibition at 1 µM was 8%. Moreover, in the data set on Plasmodium falciparum [2], the inhibition at 10 µM came out at 87%.

In the case of `CCC(C)[C@H](c1nc2ccccc2n1Cc1cn(-c2c(F)c(F)c(F)c(F)c2F)nn1)N1C(=O)c2ccc(C)cc2C1=O` (stereo partly drawn), in the data set with Plasmodium falciparum [1], the inhibition at 1 µM is -4%. Also, the inhibition at 10 µM with Plasmodium falciparum [2] was 95%.

Take `CCC(C)[C@H](c1nc2ccccc2n1Cc1cn(Cc2ccccc2)nn1)N1C(=O)c2ccccc2C1=O` (stereo partly drawn): in the data set with Plasmodium falciparum [1], the inhibition at 1 µM stood at 35%. For the same compound, the result in the data set on Plasmodium falciparum [5], in the data set with Plasmodium falciparum [9] and in the data set on Plasmodium falciparum [16] was Active. For the same compound, the Activity result with Erythrocyte was “Non-Toxic”; in data set [8], “Non-Toxic”; with Plasmodium falciparum [15] it was “Dose dependent effect”. Moreover, the selectivity ratio in data set [7] is 123. Besides, the inhibition at 10 µM in the data set on Plasmodium falciparum [2] is 66%. Further, the FIC in the data set on Plasmodium falciparum [19] was found to be 0.67. For the same compound, the concentration for half-maximal inhibition (IC50) with Plasmodium falciparum [12] was 1880 nM; in [13], > 100000 nM; in the data set with Plasmodium falciparum [17] it was 810 nM.

In the case of `CCC(C)[C@H](c1nc2ccccc2n1Cc1cn(-c2ccc(F)cc2)nn1)N1C(=O)c2ccc(C)cc2C1=O` (stereo partly drawn), in the data set on Plasmodium falciparum [1], the inhibition at 1 µM came to 20%. In addition, the Activity result in the data set on Erythrocyte was “Non-Toxic”; in [8], “Non-Toxic”; in the data set with Plasmodium falciparum [11] it was 5.56; in the data set on Plasmodium falciparum [15] it was “Dose dependent effect”. For the same compound, the selectivity ratio was 46 in [7] and > 800 in data set [21]. In addition, the inhibition at 10 µM in the data set on Plasmodium falciparum [2] came out at 64%. Besides, the outcome in the data set on Plasmodium falciparum [20], in the data set on Plasmodium falciparum [9], with Plasmodium falciparum [22] and with Plasmodium falciparum [16] was Active. Also, the IC50 in the data set with Plasmodium falciparum [12] is 3430 nM; in data set [13], > 100000 nM; in the data set with Plasmodium falciparum [17] it was 2200 nM. The result in the data set on Plasmodium falciparum [23] and with Plasmodium falciparum [24] was inactive.

In the case of `COc1ccc(-n2cc(Cn3c([C@@H](CC(C)C)N4C(=O)c5ccc(C)cc5C4=O)nc4ccccc43)nn2)cc1`, the inhibition at 1 µM in the data set on Plasmodium falciparum [1] is -43%. Also, in the data set with Plasmodium falciparum [2], the inhibition at 10 µM is 65%.
